Data: PubChem BioAssay (NCI)
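A five-concentration, 48-hour dose response in 96-well plates underlies each endpoint, interpolated linearly between surrounding concentrations. TGI marks complete inhibition of growth.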

Key:
Test in all cases: NCI tumour cell line growth inhibition, 48 h
[1] = system: KM20L2 colon
[2] = system: 786-0 renal
[3] = system: NCI-H522 lung
[4] = system: OVCAR-8 ovarian
[5] = system: HT29 colon
[6] = system: RPMI-8226 leukemia
[7] = system: M14 melanoma
[8] = system: SN12C renal
[9] = system: NCI-H23 lung
[10] = system: KM12 colon
[11] = system: SF-539 CNS
[12] = system: SF-268 CNS
[13] = system: SW-620 colon
[14] = system: MALME-3M melanoma
[15] = system: A549 NSCLC
[16] = system: SK-MEL-5 melanoma
[17] = system: SK-OV-3 ovarian
[18] = system: MDA-N
[19] = system: MCF7 breast
[20] = system: PC-3 prostate

SMILES | TGI [1] [µM] | TGI [2] [µM] | TGI [3] [µM] | TGI [4] [µM] | TGI [5] [µM] | TGI [6] [µM] | TGI [7] [µM] | TGI [8] [µM] | TGI [9] [µM] | TGI [10] [µM] | TGI [11] [µM] | TGI [12] [µM] | TGI [13] [µM] | TGI [14] [µM] | TGI [15] [µM] | TGI [16] [µM] | TGI [17] [µM] | TGI [18] [µM] | TGI [19] [µM] | TGI [20] [µM]
CCOC(=O)/C=C/n1c2ccccc2c(=O)c2ccccc21 | > 100 | > 100 | > 100 | > 100 | > 100 | > 100 | > 100 | > 100 | > 100 | > 100 | > 100 | > 100 | > 100 | > 100 | > 100 |  |  |  |  | 
Nc1nc(SCc2ccc([N+](=O)[O-])cc2)nc2c1ncn2C1OC(CO)C(O)C1O (stereo unspecified) | > 100 | > 100 | > 100 | > 100 | > 100 | > 100 |  | > 100 | > 100 | > 100 |  | > 100 | > 100 | > 100 | > 100 | > 100 |  |  |  | 
CCN(CC)CCOc1ccc(CCc2cc(OC)c(OC)c(OC)c2)cc1 | > 100 | > 100 | > 100 | > 100 | 39 | 51.5 | 34.3 | > 100 |  | > 100 | > 100 | > 100 | 46.8 | > 100 | > 100 | 29.7 |  |  |  | 
CC(=O)OCC1OC(OC2CC3C(C)(C)C(OC(C)=O)CC[C@]3(C)C3CCC45CC4(CCC5[C@@H](C)C[C@H](O)C(O)C(C)(C)O)[C@]23C)C(O)C(O)C1O (stereo partly specified) |  | > 10 | > 10 | > 10 | > 10 | > 10 | > 10 | > 10 | > 10 | > 10 | > 10 | > 10 | > 10 | > 10 | > 10 | > 10 | > 10 | > 10 | > 10 | > 10
COc1ccc(-n2cnc3c2NC(C)(C)N=C3C(N)=O)c(OC)c1 |  | > 100 | > 100 | > 100 | > 100 | > 100 | > 100 | > 100 | > 100 | > 100 | > 100 | > 100 | > 100 | > 100 | > 100 | > 100 | > 100 | > 100 | > 100 | > 100
S=C1N(/N=C/c2c3ccccc3cc3ccccc23)C(=Nc2ccccc2)C(=Nc2ccccc2)N1c1ccccc1 |  | > 100 | > 100 | > 100 | > 100 | > 100 | > 100 | > 100 | > 100 | > 100 | > 100 | > 100 | > 100 | > 100 | > 100 | > 100 | > 100 | > 100 | > 100 | > 100
COC(=O)CNS(=O)(=O)c1ccc(-c2c3nc(c(-c4ccc(S(=O)(=O)NCC(=O)OC)cc4)c4ccc([nH]4)c(-c4ccc(S(=O)(=O)NCC(=O)OC)cc4)c4nc(c(-c5ccc(S(=O)(=O)NCC(=O)OC)cc5)c5ccc2[nH]5)C=C4)C=C3)cc1 |  | > 100 | > 100 | > 100 | > 100 | > 100 | 41.9 | > 100 | > 100 | > 100 | > 100 | > 100 | > 100 | > 100 | > 100 | > 100 | > 100 | > 100 | > 100 | > 100
N#C/C(c1nc2ccccc2[nH]1)=c1\s/c(=C/c2ccc(Cl)cc2)c(=O)n1-c1ccccc1 | > 100 | > 100 | > 100 | > 100 |  | > 100 | > 100 | > 100 | > 100 | > 100 | > 100 | > 100 | > 100 | > 100 | > 100 | > 100 | > 100 |  |  | 
CC(=O)NNc1nc(C)c(C(=O)/C=C/c2ccccc2Cl)s1 | > 100 | > 100 | > 100 | > 100 | > 100 | > 100 |  | > 100 | > 100 | > 100 | > 100 | > 100 | > 100 | > 100 | > 100 | > 100 | > 100 |  |  | 
C=CCC(N(C)C(=O)[C@H](Cc1ccccc1)NC(=O)OCc1ccccc1)P(=O)(Oc1ccccc1)Oc1ccccc1 (stereo partly specified) | > 100 | > 100 | > 100 | > 100 | > 100 | > 100 | > 100 | > 100 | > 100 | > 100 | > 100 | > 100 | > 100 | > 100 | > 100 |  | > 100 |  |  | 
Clc1cc(Cl)cc(C=NC23CC4CC(CC(C4)C2)C3)c1 |  | > 10 | > 10 | > 10 | > 10 | > 10 | > 10 | > 10 | > 10 | > 10 | > 10 | > 10 | > 10 | > 10 | > 10 | > 10 | > 10 | > 10 | > 10 | > 10
O=C1c2ccccc2OP(=O)(OCC(F)(F)F)OC1(C(F)(F)F)C(F)(F)F (stereo unspecified) | > 100 | > 100 | > 100 | > 100 | > 100 | > 100 | > 100 | > 100 | > 100 | > 100 | > 100 | > 100 | > 100 |  | > 100 | > 100 | > 100 |  |  | 
C=CCOC(=O)NC1C(OC(C)[C@@H](NC(=O)OCc2ccccc2)C(=O)OC(C)(C)C)OC(COC(C)=O)C(OC(C)=O)C1OC(C)=O (stereo partly specified) |  | > 100 | > 100 | > 100 | > 100 | > 100 | > 100 | > 100 | > 100 | > 100 | > 100 | > 100 | > 100 | > 100 | > 100 | > 100 | > 100 | > 100 | > 100 | > 100
O=c1[nH]nc2ccccc2c1Cc1ccccc1 | > 100 | > 100 |  | > 100 | > 100 | > 100 | > 100 | > 100 | > 100 | > 100 | > 100 | > 100 | > 100 | > 100 | > 100 | > 100 | > 100 |  |  | 
CN(C)CCN(C)c1ccc2c(=O)n(CCN(C)C)c(=O)n3c4ccccc4c(=O)c1c23 |  | 10.2 | 2.8 | 7.15 | 3.73 | 3.32 | 6.68 | 2.64 | 2.23 | 8.08 | 2.15 | 0.559 | 8.34 | 3 | 22.7 | 2.71 | 16.7 | 2.89 | 11.3 | 21.3
CCOP(=O)(OCC)C(C)(CC)N/C(=N/C(NC(C)=O)(C(F)(F)F)C(F)(F)F)NC1=NC(C(F)(F)F)(C(F)(F)F)N=C(C(F)(F)F)O1 (stereo unspecified) |  | > 100 | 77.7 | > 100 | > 100 | 73.7 | 64.7 | > 100 | 91.5 | > 100 | > 100 | > 100 | > 100 | 58.2 | > 100 | 31.9 | > 100 | > 100 | 68.8 | 77.6
COC(=O)CC1NC(=O)[C@@H]1C(C)O (stereo partly specified) | > 100 | > 100 |  | > 100 | > 100 | > 100 | > 100 | > 100 |  |  | > 100 | > 100 | > 100 | > 100 | > 100 | > 100 |  |  |  | 
Cn1c2ccc3cc2c(=S)c2cc(ccc21)OCCOCCOCCOCCOCCO3 |  | > 10 | > 10 | > 10 | > 10 | > 10 | > 10 | > 10 | > 10 | > 10 | > 10 | > 10 | > 10 | > 10 | > 10 | > 10 | > 10 | > 10 | > 10 | > 10
Clc1ccc(N=Nc2nc3ccccc3nc2N=Nc2ccc(Cl)cc2Cl)c(Cl)c1 | > 100 | > 100 | > 100 | > 100 | > 100 | > 100 |  | > 100 | > 100 | > 100 | > 100 | > 100 | > 100 | > 100 | > 100 |  |  |  |  | 
CCOC(=O)Cn1c(=O)c2nc(SC)sc2n(CC)c1=S |  | 0.32 | > 100 | > 100 | > 100 | > 100 | 17.4 | > 100 | > 100 | > 100 | > 100 | > 100 | > 100 | > 100 | > 100 | > 100 | > 100 | > 100 | > 100 | > 100
